# Read-outs that look alike come from different tables or passages of the source.
# Tests used:
# [1] = test system: canonical Wnt signaling in colorectal cancer SW480 cells; test: TOPFlash luciferase reporter assay, SW480; format: cell-based; details: Homo sapiens, SW480, 24 h, read-out: TOPFlash IC50 ± SD SW480
# Method: (§1) FuGENE 6 (E2962, Promega) in a 96-well plate format was used for the transfection of HEK293 and SW480 cells according to the manufacturer's instructions. […] SW480 cells were co-transfected with 60 ng of the TOPFlash or FOPFlash reporter gene and 40 ng pCMV-RL normalization reporter. Cells were cultured in DMEM and 10% fatal bovine serum at 37° C. for 24 h, and different concentrations of inhibitors were then added. After 24 h, the luciferase reporter activity was measured using the Dual-Glo system (E2940, Promega). Normalized luciferase activity in response to the treatment with the inhibitors was compared with that obtained from the cells treated with DMSO. Experiments were performed in triplicate.
# [2] = test system: FOPFlash luciferase (reporter with eight mutant Tcf binding sites); format: cell-based, human
# Method: as §1
# [3] = test system: SW480 cells; test: MTs cell viability assay, SW480; format: cell-based, human; details: Homo sapiens, SW480; MTs cell viability, 72 h; read-out: IC50 ± SD SW480
# Method: (§2) Colorectal cancer cell lines, SW480, HT29, an HCT116, and human normal cell line HEK293 were seeded in 96-well plates at 4×10^3 cells/well, maintained overnight at 37° C., and incubated with the tested compounds at various concentrations. Cell viability was monitored after 72 h using a freshly prepared mixture of 1 part phenazine methosulfate (PMS, Sigma) solution (0.92 mg/mL) and 19 parts 3-(4,5-dimethylthiazol-2-yl)-5-(3-carboxymethoxyphenyl)-2-(4-sulfophenyl)-2H-tetrazolium (MTs, Promega) solution (2 mg/mL). Cells were incubated in 10 μL of this solution at 37° C. for 3 h, and A490 was measured. […] Experiments were performed in triplicate.
# [4] = test system: HCT116 cells; test: MTs cell viability assay, HCT116; format: cell-based, human; details: Homo sapiens, HCT-116; MTs cell viability, 72 h; read-out: IC50 ± SD HCT116
# Method: as §2
# [5] = test system: HT29 cells; test: MTs cell viability assay, HT29; format: cell-based; details: Homo sapiens, HT-29, 72 h, read-out: IC50 ± SD HT29
# Method: as §2
# [6] = target: T1, β-catenin/Tcf4 PPI (Homo sapiens, UniProt P35222); details: read-out: Ki ± SD FP; Table 8, resynthesized 18 and derivatives
# T1 sequence (P35222 138-686): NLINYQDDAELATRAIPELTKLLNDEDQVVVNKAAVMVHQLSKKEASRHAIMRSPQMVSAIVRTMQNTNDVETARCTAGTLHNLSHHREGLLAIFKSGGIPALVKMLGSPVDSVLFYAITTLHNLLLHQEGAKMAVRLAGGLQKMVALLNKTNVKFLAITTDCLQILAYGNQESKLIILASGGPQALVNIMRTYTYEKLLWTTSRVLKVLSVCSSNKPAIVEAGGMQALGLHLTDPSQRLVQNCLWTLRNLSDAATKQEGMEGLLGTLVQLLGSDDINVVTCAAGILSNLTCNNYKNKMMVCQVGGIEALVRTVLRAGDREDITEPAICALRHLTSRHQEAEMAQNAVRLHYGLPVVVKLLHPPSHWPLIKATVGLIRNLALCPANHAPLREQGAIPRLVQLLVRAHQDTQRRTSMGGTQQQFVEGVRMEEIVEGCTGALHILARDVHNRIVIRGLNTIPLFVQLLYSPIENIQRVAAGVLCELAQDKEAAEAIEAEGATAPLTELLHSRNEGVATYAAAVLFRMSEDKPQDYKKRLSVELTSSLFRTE
# Description: (§3) After β-catenin and fluorescein-Tcf4 form a protein-protein complex, the fluorophore is attached to a high-molecular-weight protein complex (≥60 kDa) and has a low rotational speed when it is excited by plane-polarized light. […] When an inhibitor completely disrupts the β-catenin/fluorescein-Tcf4 PPI, the fluorophore is only attached to Tcf4 (≤6 kDa), and the emitted light after excitation will be largely depolarized due to a high rotational speed of the fluorophore. AlphaScreen is a bead-based assay. […] On laser excitation at 680 nm, the photo sensitizers inside the donor beads convert ambient oxygen to a singlet oxygen state. Only when the donor and acceptor beads are brought within 200 nm can the singlet oxygen molecules diffuse to the acceptor beads, resulting in extensive emission at 570 nm.
# [7] = target: T1, β-catenin/Tcf4 PPI; test: biochemical
# Description: as §3
# [8] = test system: cyclin D1, c-myc and β-catenin protein expression in SW480 cells; test: Western blot analysis; format: cell-based, human; details: SW480, 24 h
# Method: SW480 cells at 1×10^6 cells/mL were treated with different concentrations of 18 for 24 h. Cell were lysed in a buffer containing 50 mM Tris (pH 7.4), 150 mM NaCl, 1% Nonidet P-40, 0.5% sodium deoxycholate, 0.1% SDS, and protease inhibitors. After centrifugation at 12,000 rpm for 20 min at 4° C., the supernatant was loaded onto an 8% SDS polyacrylamide gel for electrophoretic analysis. Separated proteins were transferred onto nitrocellulose membranes for immunoblot analysis. The antibodies against c-myc (D84C12, Cell Signaling), cyclin D1 (sc-853, Santa Cruz Biotechnology, Inc.), and β-tubulin (sc-55529, Santa Cruz Biotechnology, Inc) were used. IRDye 680LT goat anti-mouse IgG (827-11080, LiCOR) or IRDye 800CW goat anti-rabbit IgG (827-08365, LiCOR) was used as the secondary antibody. The images were detected by the Odyssey Infrared Imaging System (LiCOR). The Western blot bands were quantified by LI-COR Image Studio Lite 4.0. Experiments were performed in duplicate.
# [9] = target: T2, β-catenin/Tcf PPI in SW480 cells (Homo sapiens, UniProt P35222); test: Coimmunoprecipitation assay; format: cell-based; details: SW480, 24 h
# T2 construct: endogenous in cells; host or cells: SW480
# T2 sequence (P35222 2-781 limits assumed): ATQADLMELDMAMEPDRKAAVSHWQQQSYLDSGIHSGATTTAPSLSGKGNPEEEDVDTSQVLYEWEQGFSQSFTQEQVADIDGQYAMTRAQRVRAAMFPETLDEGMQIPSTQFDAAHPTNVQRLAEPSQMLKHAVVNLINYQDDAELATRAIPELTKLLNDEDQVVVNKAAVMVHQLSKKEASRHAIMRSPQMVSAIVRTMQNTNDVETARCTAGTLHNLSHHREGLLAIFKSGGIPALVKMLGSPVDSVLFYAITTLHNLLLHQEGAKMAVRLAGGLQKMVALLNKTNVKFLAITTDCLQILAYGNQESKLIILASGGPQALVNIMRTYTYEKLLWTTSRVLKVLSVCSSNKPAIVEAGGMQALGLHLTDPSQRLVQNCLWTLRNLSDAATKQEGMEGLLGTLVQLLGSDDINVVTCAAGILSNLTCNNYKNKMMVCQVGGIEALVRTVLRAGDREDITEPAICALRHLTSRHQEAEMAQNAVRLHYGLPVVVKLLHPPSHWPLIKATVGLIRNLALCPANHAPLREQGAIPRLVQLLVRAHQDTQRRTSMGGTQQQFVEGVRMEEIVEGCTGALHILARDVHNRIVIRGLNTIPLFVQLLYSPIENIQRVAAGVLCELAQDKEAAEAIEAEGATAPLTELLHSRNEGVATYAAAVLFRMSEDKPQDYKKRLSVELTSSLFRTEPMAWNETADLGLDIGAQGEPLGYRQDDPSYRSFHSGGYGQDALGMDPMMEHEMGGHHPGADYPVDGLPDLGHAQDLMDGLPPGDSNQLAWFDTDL
# Method: SW480 cells at 1×10^6/mL were treated with different concentrations of 18 for 24 h. Cells were lysed in buffer containing 50 mM Tris, pH 7.4, 150 mM NaCl, 1% Nonidet P-40, 2 mM EDTA, and protease inhibitors. The lysates were preabsorbed to A/G plus agarose (sc-2003, Santa Cruz Biotechnology, Inc.) at 4° C. for 1 h. Preadsorbed lysates were incubated with a specific primary antibody overnight at 4° C. A/G plus agarose was then added to the lysates mixture and incubated for 3 h. The beads were washed 5 times with the lysis buffer at 4° C. The bound protein was eluted by boiling in the SDS sample buffer and loaded onto 8% SDS polyacrylamide gel for electrophoretic analysis. Separated proteins were transferred onto nitrocellulose membranes for immunoblot analysis. The primary antibodies were against fl-catenin (610153, BD Biosciences) and Tcf4 (05-511, Millipore). IRDye 680LT goat anti-mouse IgG (827-11080, LiCOR) was used as the secondary antibody. The images were detected by the Odyssey Infrared Imaging System (LiCOR). Experiments were performed in duplicate.
# [10] = test system: Wnt/β-catenin target genes in SW480 cells
# Method: Total RNAs were extracted with TRIzol (Ser. […] The threshold cycle (CT) values were normalized to that of internal reference GAPDH. The primer pairs for human GAPDH were forward: [NT] and reverse: [NT]; for human HPRT forward: [NT] and reverse: [NT]; for human AXIN2 forward: [NT] and reverse: [NT]; for human c-myc forward: [NT] and reverse: [NT]; and for human cyclin D1 forward: [NT] and reverse: [NT]. Experiments were performed in triplicate.
# [11] = target: T1, β-catenin/Tcf4 PPI; details: Table 3, known inhibitors, footnotes a, b; read-out: Ki + SD FP; cited from earlier work
# [12] = target: T3, β-catenin/Tcf4 (Homo sapiens, UniProt P35222); details: FP selectivity assay, known inhibitors, footnotes a, b; read-out: Ki ± SD β-catenin/Tcf4; cited from earlier work
# T3 sequence (P35222 138-686): T1 sequence (P35222 138-686)
# [13] = target: T4, β-catenin/E-cadherin (Homo sapiens, UniProt P35222); details: FP selectivity assay, known inhibitors, footnotes a, b; read-out: Ki ± SD β-catenin/E-cadherin; cited from earlier work
# T4 construct: Wild-type β-catenin and its mutants (residues 138-686) were cloned; 6xHis; made in house; host or cells: E. coli BL21 DE3
# T4 sequence (P35222 138-686): T1 sequence (P35222 138-686)
# [14] = target: T5, β-catenin/APC-R3 (Homo sapiens, UniProt P35222); details: FP selectivity assay, known inhibitors, footnotes a, b; read-out: Ki ± SD β-catenin/APC-R3; cited from earlier work
# T5 construct: Wild-type β-catenin and its mutants (residues 138-686) were cloned; 6xHis; made in house; host or cells: E. coli BL21 DE3
# T5 sequence (P35222 138-686): T1 sequence (P35222 138-686)
compound,measurement,setting,value
"COc1ccc(/C=C2\SC(=S)N(CCCC(=O)O)C2=O)cc1OC [Compound 9, reference compound]",IC50,[1],4 ± 0.39 µM
same,FOPFlash luciferase reporter activity,[2]; reference inhibitors,inhibited
same,IC50,[3],240 ± 2.5 µM
same,IC50,[4],180 ± 2.9 µM
same,IC50,[5],290 ± 2.4 µM
"N#CCn1c2ccccc2c2nc3nonc3nc21 [Compound 34, 2-(5H-[1,2,5]Oxadiazolo[3′,4′:5,6]Pyrazino[2,3-B]Indol-5-yl)Acetonitrile]",Ki,[6],240 ± 14 µM
same,Ki,[7],> 130 µM
"Nc1nonc1C(=O)N/N=C1/c2ccccc2-c2nc3nonc3nc21 [Compound 18, (Z)-4-Amino-N′-(9H-Indeno[1,2-B][1,2,5]Oxadiazolo[3,4-E]Pyrazin-9-ylidene)-1,2,5-Oxadiazole-3-Carbohydrazide]",concentrations at which FOPFlash luciferase activity was inhibited,"[2]; HEK293 and SW480 (FIG. 7), off-target effects",≥ 5 µM
same,expression level of β-catenin,[8],did not reduce
same,expression of proteins cyclin D1 and c-myc,[8],significantly reduced
same,β-catenin/Tcf PPI in a cellular context,[9],inhibits the β-catenin/Tcf PPI in a dose-dependent manner
same,mRNA expression inhibited,"[10]; AXIN2, cyclin D1, c-myc, dose of 2 μM, SW480, 24 h",More than 50%
same,expression of house-keeping gene HPRT,[10]; SW480,did not affect
same,"expression of AXIN2, cyclin D1, and c-myc (mRNA)","[10]; SW480, dose-dependent",down-regulated
COC1=C(CC(C)OC(=O)Oc2ccc(O)cc2)C2c3c(c(O)cc(OC)c3-c3c(OC)cc(O)c4c3C2C(CC(C)OC(=O)c2ccccc2)=C(OC)C4=O)C1=O (stereo not drawn) [Compound 1],Ki,[11],18 ± 2.1 µM
same,Ki,[12],77 ± 9.3 µM
same,Ki,[13],38 ± 1.6 µM
same,Ki,[14],110 ± 0.58 µM

# From patent publication US10273246B2, “Methods and compositions of substituted 5H-[1,2,5] oxadiazolo [3′,4′:5,6] pyrazino[2,3-B] indole analogs as inhibitors of β-catenin/T-cell factor protein-protein interactions” (University of Utah Research Foundation, priority 2015, dated 2019)
